Measured values: paper PMC10279719 (Nature Communications, 2023)
Each block holds one molecule with its values, some of them ahead of it.

Columns and labels:
[1] = biological target: Grb2^FL; conditions: isothermal titration calorimetry, shown previously; read-out: ITC KD, Grb2^FL; cited from earlier work
[2] = system: PEAK3 pY24 phosphorylation in MCF-10A cells; conditions: MCF-10A cells treated with inhibitor; cited from earlier work
[3] = biological target: T1, 14-3-3η (Homo sapiens, UniProt Q04917); experiment: SPR, PEAK tandem peptides binding to immobilised 14-3-3η; conditions: peptide analyte over amine-coupled 14-3-3η (CM5); Biacore S200, HBS-TP pH 7.4, 20 °C; steady-state 1:1 fit; mean ± S.E.M.; read-out: SPR KD, 14-3-3η (eta)
T1 construct: 14-3-3η (UniProt Q04917-1; residues 1–246); 8-His tag with TEV protease cleavage site (N); made in house; host or cells: E. coli C41 (DE3)
T1 sequence (Q04917 1-246): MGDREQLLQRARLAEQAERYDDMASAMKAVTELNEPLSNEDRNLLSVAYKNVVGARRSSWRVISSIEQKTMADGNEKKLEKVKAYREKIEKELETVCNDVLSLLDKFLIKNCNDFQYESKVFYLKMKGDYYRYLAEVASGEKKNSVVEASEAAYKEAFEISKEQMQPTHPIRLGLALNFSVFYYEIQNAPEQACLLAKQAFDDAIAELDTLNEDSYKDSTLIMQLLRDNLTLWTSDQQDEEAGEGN
Procedure: (§1) Purified […]3 was diluted to 5 μg ml^-1 in 10 mM sodium acetate pH 4.0 and amine coupled at 25 °C to a Series S CM5 sensor chip, in HBS-N running buffer (20 mM HEPES pH 7.4, 150 mM NaCl) to a final immobilization level of 1100-1400 response units (RU), followed by surface deactivation using 1 M ethanolamine. A blank activation/deactivation was used for the reference surface. […] Samples were injected in a multi-cycle run (flow rate 30 μl min^-1, contact time of 60 s, dissociation 120 s) without regeneration. Sensorgrams were double referenced, and steady-state binding data fitted using a 1:1 binding model using Biacore S200 Evaluation Software (Cytiva, v. 1.1). […] Representative sensorgrams and fitted dissociation constant (KD) values, depicted as mean ± S.E.M.

[4] = biological target: T2, 14-3-3σ (Homo sapiens); experiment: SPR, PEAK tandem peptides binding to immobilised 14-3-3σ; conditions: peptide analyte over amine-coupled 14-3-3σ (CM5); Biacore S200, HBS-TP pH 7.4, 20 °C; steady-state 1:1 fit; mean ± S.E.M.; read-out: SPR KD, 14-3-3σ (sigma)
T2 construct: 14-3-3ς (UniProt P63104-1; residues 1–245); 8-His tag with TEV protease cleavage site (N); made in house; host or cells: E. coli C41 (DE3)
T2 sequence (P63104 whole entry, the tested form may be a part): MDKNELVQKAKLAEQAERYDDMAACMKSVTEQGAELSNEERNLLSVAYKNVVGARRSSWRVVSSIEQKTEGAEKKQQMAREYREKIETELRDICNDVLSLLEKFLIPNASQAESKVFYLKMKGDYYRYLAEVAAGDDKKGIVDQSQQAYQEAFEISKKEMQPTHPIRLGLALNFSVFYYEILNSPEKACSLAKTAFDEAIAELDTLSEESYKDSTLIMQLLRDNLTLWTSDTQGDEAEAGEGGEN
Procedure: as §1

[5] = biological target: T3, 14-3-3ε (Homo sapiens, UniProt P62258); experiment: SPR, PEAK tandem peptides binding to immobilised 14-3-3ε; conditions: peptide analyte over amine-coupled 14-3-3ε (CM5); Biacore S200, HBS-TP pH 7.4, 20 °C; steady-state 1:1 fit; mean ± S.E.M.; read-out: SPR KD, 14-3-3ε (epsilon)
T3 construct: 14-3-3ε (UniProt P62258-1; residues 1–255); 8-His tag with TEV protease cleavage site (N); made in house; host or cells: E. coli C41 (DE3)
T3 sequence (P62258 1-255): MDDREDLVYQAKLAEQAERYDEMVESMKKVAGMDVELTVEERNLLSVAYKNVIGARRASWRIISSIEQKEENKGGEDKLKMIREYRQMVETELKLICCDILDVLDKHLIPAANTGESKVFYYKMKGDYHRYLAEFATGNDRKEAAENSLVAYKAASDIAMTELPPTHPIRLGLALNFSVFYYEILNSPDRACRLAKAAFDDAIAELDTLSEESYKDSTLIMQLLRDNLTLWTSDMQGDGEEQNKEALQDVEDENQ
Procedure: Purified […]3 was diluted to 5 μg ml^-1 in 10 mM sodium acetate pH 4.0 and amine coupled at 25 °C to a Series S CM5 sensor chip, in HBS-N running buffer (20 mM HEPES pH 7.4, 150 mM NaCl) to a final immobilization level of 1100-1400 response units (RU), followed by surface deactivation using 1 M ethanolamine. A blank activation/deactivation was used for the reference surface. […] PEAK PRM peptides: […] Samples were injected in a multi-cycle run (flow rate 30 μl min^-1, contact time of 60 s, dissociation 120 s) without regeneration. Sensorgrams were double referenced, and steady-state binding data fitted using a 1:1 binding model using Biacore S200 Evaluation Software (Cytiva, v. 1.1). […] Representative sensorgrams and fitted dissociation constant (KD) values, depicted as mean ± S.E.M.

[6] = biological target: T4, 14-3-3γ (Homo sapiens, UniProt P61981); experiment: SPR, PEAK peptides binding to immobilised 14-3-3γ; conditions: peptide analyte over amine-coupled 14-3-3γ (CM5); Biacore S200, HBS-TP pH 7.4, 20 °C; steady-state 1:1 fit; mean ± S.E.M.; read-out: SPR KD, 14-3-3γ (gamma)
T4 construct: 14-3-3γ (UniProt P61981-1; residues 1–247); 8-His tag with TEV protease cleavage site (N); made in house; host or cells: E. coli C41 (DE3)
T4 sequence (P61981 1-247): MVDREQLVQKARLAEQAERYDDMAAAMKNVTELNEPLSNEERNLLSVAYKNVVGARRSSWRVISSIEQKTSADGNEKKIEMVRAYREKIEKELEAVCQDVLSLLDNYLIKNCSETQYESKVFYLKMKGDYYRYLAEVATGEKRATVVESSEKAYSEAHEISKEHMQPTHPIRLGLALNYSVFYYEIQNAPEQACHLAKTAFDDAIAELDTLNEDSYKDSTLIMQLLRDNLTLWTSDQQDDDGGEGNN
Procedure: as §1

[7] = biological target: 14-3-3ɣ; experiment: SPR, 14-3-3ɣ binding to immobilised PEAK proteins; parameters: species or system human; conditions: 14-3-3ɣ analyte 0.46–1000 nM, multi-cycle, over immobilised biotinylated PEAK protein; Biacore 8K+, 20 °C; KD only an estimate (bivalent analyte model); N = 3
Procedure: PEAK proteins and adapters proteins (full length or individual domains) were biotinylated using EZ-Link™ NHS-PEG4-Biotin (Thermo Fisher) at a 1:1 molar ratio (100 µM) for 1 h at room temperature, then excess biotin was removed by buffer exchange using a Zeba™ Spin Desalting Column (Thermo Fisher) into HBS-T buffer (20 mM HEPES pH 7.4, 150 mM NaCl, 1 mM TCEP).
SPR binding studies of PEAK proteins to full length CrkII/Grb2 and sub-domains were performed using a Biacore 8K+ Instrument (Cytiva) and analyzed using Biacore Insight Evaluation Software (v. 3.0.12.15655). […] Biotinylated PEAK proteins (with or without Src phosphorylation; 500 nM in HBS-TP) were immobilized using a biotin CAPture kit (Cytiva) in HBS-TP running buffer at 20 °C. Binding studies and steady-state data analysis were performed as described for CrkII^NSH3 with the inclusion of an additional surface regeneration step (60 s injection of 1 M NaCl) between cycles. For Grb2^FL, Grb2^SH2, CrkII^SH2, CrkII^FL monomer and CrkII^FL dimer, to reduce nonspecific interactions the HBS-TP running buffer was supplemented with additional NaCl to a final concentration of 500 mM.
Binding studies for 14-3-3ɣ were undertaken in the same way in multi cycle mode (8 point, 3-fold serial dilution series, 0.46–1000 nM, 60 s contact time, 300 s dissociation).

[8] = biological target: T5, CrkII^NSH3 (Homo sapiens, UniProt P46108); experiment: SPR, CrkII NSH3 binding to immobilised PEAK proteins; conditions: read-out: CrkII NSH3 SPR KD; interactor as analyte over biotinylated PEAK protein captured with biotin CAPture kit; Biacore 8K+, HBS-TP, 20 °C; steady-state fit; mean ± SD (N = 2); read-out: CrkII-SH2 SPR KD
T5 construct: CrkII^NSH3; UniProt P46108-1, residues 134–191; 8-His tag with TEV protease cleavage site (N); made in house; host or cells: E. coli C41 (DE3)
T5 sequence (P46108 134-191): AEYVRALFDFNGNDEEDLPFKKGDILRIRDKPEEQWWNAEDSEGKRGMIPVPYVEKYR
Procedure: (§2) SPR binding studies of PEAK PRM peptides to CrkII^NSH3 were performed using a Biacore S200 Instrument (Cytiva). Purified CrkII^NSH3 was diluted to 5 µg ml^−1 in 10 mM sodium acetate pH 4.0 and amine coupled at 25 °C to a Series S CM5 sensor chip, in HBS-N running buffer (20 mM HEPES pH 7.4, 150 mM NaCl) to a final immobilization level of 1100–1400 response units (RU), followed by surface deactivation using 1 M ethanolamine. A blank activation/deactivation was used for the reference surface. Peptide binding studies were performed at 20 °C in HBS-TP running buffer (20 mM HEPES pH 7.4, 150 mM NaCl, 1 mM TCEP, 0.005% (v/v) Tween-P20). […] Peptide stocks were further diluted to in running buffer to 10 or 20 µM and prepared as a 11-point concentration series (2-fold serial dilution, […] for PEAK PRM peptides, or 20 µM–20 nM for PEAK tandem motif peptides). Samples were injected in a multi-cycle run (flow rate 30 µl min^−1, contact time of 60 s, dissociation 120 s) without regeneration. Sensorgrams were double referenced, and steady-state binding data fitted using a 1:1 binding model using Biacore S200 Evaluation Software (Cytiva, v. 1.1).
(§3) SPR binding studies of PEAK proteins to full length CrkII/Grb2 and sub-domains were performed using a Biacore 8K+ Instrument (Cytiva) and analyzed using Biacore Insight Evaluation Software (v. 3.0.12.15655). […] Binding studies and steady-state data analysis were performed as described for CrkII^NSH3 with the inclusion of an additional surface regeneration step (60 s injection of 1 M NaCl) between cycles.

[9] = biological target: T6, CrkII^SH2 (Homo sapiens, UniProt P46108); experiment: SPR, CrkII SH2 binding to immobilised PEAK proteins; conditions: interactor as analyte over biotinylated PEAK protein (biotin CAPture); Biacore 8K+, HBS-TP with 500 mM NaCl, 20 °C; steady-state fit; mean ± S.E.M. (N = 3)
T6 construct: CrkII^SH2; UniProt P46108-1, residues 6–120; 8-His tag with TEV protease cleavage site (N); made in house; host or cells: E. coli C41 (DE3)
T6 sequence (P46108 6-120): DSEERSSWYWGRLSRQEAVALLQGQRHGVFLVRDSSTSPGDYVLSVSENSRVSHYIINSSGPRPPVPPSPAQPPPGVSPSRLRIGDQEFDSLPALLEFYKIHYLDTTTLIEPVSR
Procedure: as §2, §3

[10] = biological target: T7, CrkII^FL dimer (Homo sapiens, UniProt P46108); experiment: SPR, CrkII FL dimer binding to immobilised PEAK proteins; conditions: interactor as analyte over biotinylated PEAK protein (biotin CAPture); Biacore 8K+, HBS-TP with 500 mM NaCl, 20 °C; steady-state fit; mean ± SD (N = 2)
T7 construct: full length CrkII (CrkII^FL; UniProt P46108-1, residues 1–330); 8-His tag with TEV protease cleavage site (N); made in house; host or cells: E. coli C41 (DE3)
T7 sequence (P46108 whole entry, the tested form may be a part): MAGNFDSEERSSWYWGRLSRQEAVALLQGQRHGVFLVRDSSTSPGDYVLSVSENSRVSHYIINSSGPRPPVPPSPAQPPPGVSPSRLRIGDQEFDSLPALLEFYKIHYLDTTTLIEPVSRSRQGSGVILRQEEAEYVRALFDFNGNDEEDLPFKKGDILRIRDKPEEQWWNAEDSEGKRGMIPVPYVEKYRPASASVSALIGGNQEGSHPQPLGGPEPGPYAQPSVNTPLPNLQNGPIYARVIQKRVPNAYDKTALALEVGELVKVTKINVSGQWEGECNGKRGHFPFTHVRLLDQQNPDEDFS
Procedure: as §2
(§4) SPR binding studies of PEAK proteins to full length CrkII/Grb2 and sub-domains were performed using a Biacore 8K+ Instrument (Cytiva) and analyzed using Biacore Insight Evaluation Software (v. 3.0.12.15655). […]

[11] = biological target: T8, CrkII^FL monomer (Homo sapiens, UniProt P46108); experiment: SPR, CrkII FL monomer binding to immobilised PEAK proteins; conditions: interactor as analyte over biotinylated PEAK protein (biotin CAPture); Biacore 8K+, HBS-TP with 500 mM NaCl, 20 °C; steady-state fit; mean ± SD (N = 2)
T8 construct: full length CrkII (CrkII^FL; UniProt P46108-1, residues 1–330); 8-His tag with TEV protease cleavage site (N); made in house; host or cells: E. coli C41 (DE3)
T8 sequence (P46108 whole entry, the tested form may be a part): as above
Procedure: as §2, §4

Molecule: CC(=O)N[C@H](C(=O)N[C@@H](Cc1ccc(OP(=O)(O)O)cc1)C(=O)N[C@@H](CO)C(=O)N[C@@H](CC(N)=O)C(=O)N[C@@H](CC(C)C)C(=O)NCC(=O)N[C@@H](CCC(N)=O)C(N)=O)[C@@H](C)O [SH2-pY peptide]
- Kd [1]: 2.6 µM

Molecule: Cc1nc(Nc2ncc(C(=O)Nc3c(C)cccc3Cl)s2)cc(N2CCN(CCO)CC2)n1 [dasatanib]
- phosphorylation of PEAK3 at the TYSNL (pY24) site [2]: blocked

Molecule: COc1cc(-c2nn(CCN3CCC(N(C)C)CC3)c3ncnc(N)c23)ccc1NC(=O)OC(C)(C)C [eCF506]
- phosphorylation of PEAK3 at the TYSNL (pY24) site [2]: blocked

- Kd [3]: > 100 µM
- Kd [4]: > 100 µM
- Kd [5]: > 100 µM
- Kd [6]: > 100 µM
Molecule: CC[C@H](C)[C@H](NC(=O)[C@H](CCSC)NC(=O)[C@H](CCCCN)NC(=O)[C@H](CCCCN)NC(=O)[C@@H]1CCCN1C(=O)[C@H](CC(C)C)NC(=O)[C@@H]1CCCN1C(=O)[C@@H]1CCCN1C(=O)[C@@H]1CCCN1C(C)=O)C(=O)N[C@H](C(=O)N[C@@H](CCCNC(=N)N)C(=O)N[C@@H](C)C(=O)N[C@@H](CC(N)=O)C(=O)N[C@H](C(=O)N[C@@H](CCC(=O)O)C(=O)N1CCC[C@H]1C(=O)N[C@H](C(=O)N[C@@H](CO)C(=O)N[C@@H](CCCCN)C(=O)N[C@@H](CC(=O)O)C(N)=O)[C@@H](C)CC)[C@@H](C)O)[C@@H](C)CC (single isomer, unassigned) [PEAK1^tandem]

Molecule: PEAK3-FL E.coli: full length human PEAK3 (1–473) purified from E. coli, no bound 14-3-3
- SPR KD, 14-3-3ɣ [7]: No binding
- Kd [8]: 9.6 µM
- SPR KD, CrkII-SH2 [9]: No binding

- Kd [3]: > 100 µM
- Kd [4]: > 100 µM
- Kd [5]: > 100 µM
- Kd [6]: > 100 µM
Molecule: CC[C@H](C)[C@H](NC(=O)[C@H](CCCCN)NC(=O)[C@H](CCCCN)NC(=O)[C@H](CCC(N)=O)NC(=O)[C@@H]1CCCN1C(=O)[C@H](CC(C)C)NC(=O)[C@@H]1CCCN1C(=O)[C@@H]1CCCN1C(=O)[C@@H]1CCCN1C(C)=O)C(=O)N[C@H](C(=O)N[C@@H](CO)C(=O)N[C@@H](CCCNC(=N)N)C(=O)N[C@@H](C)C(=O)N[C@@H](C)C(=O)N[C@@H](CO)C(=O)N[C@@H](CO)C(=O)N1CCC[C@H]1C(=O)N[C@@H](CC(=O)O)C(=O)NCC(=O)N[C@@H](Cc1ccccc1)C(N)=O)C(C)C (single isomer, unassigned) [PEAK2^tandem]

Molecule: PEAK3-FL E.coli (+ Src phosphorylation): E. coli PEAK3 (1–473) phosphorylated with recombinant Src kinase
- SPR KD, 14-3-3ɣ [7]: No binding
- Kd [8]: 13.1 µM
- SPR KD, CrkII-SH2 [9]: No binding
- Kd [10]: 2.11 µM
- Kd [11]: 2.6 µM

- Kd [7]: < 1 µM
- Kd [8]: 6.84 µM
- Kd [10]: 2.18 µM
Molecule: PEAK3-FL (+ Src phosphorylation): insect cell PEAK3 (1–473) phosphorylated with recombinant Src kinase
